In ChEMBL document CHEMBL1152184, “A micellar prodrug of paclitaxel conjugated to cyclotriphosphazene” (Bioorg Med Chem Lett, 2008):

System: A-431
Assay: Cytotoxicity against human A431 cells after 72 hrs by SRB method
Type: functional, cell-based
Details: A-431, 72 h

CC(=O)O[C@H]1C(=O)[C@@]2(C)[C@H]([C@H](OC(=O)c3ccccc3)[C@]3(O)C[C@H](OC(=O)[C@H](O)[C@@H](NC(=O)c4ccccc4)c4ccccc4)C(C)=C1C3(C)C)[C@]1(OC(C)=O)CO[C@@H]1C[C@@H]2O [PACLITAXEL]
IC50: 25.1 nM
